The conditions of series [1]: cited from earlier work.
Another series concerns gram-positive bacteria. Also noted: method as in Table S1. The settings on record: ref Table S1; cited from earlier work.
Another series concerns androgen receptor. Also noted: method as in PMID 33064576. The settings on record: in silico and in vitro studies; cited from earlier work.
The subject of a further series is yeasts / moulds. The arrangement: method as in Table S1. The conditions noted are these: ref Table S1; cited from earlier work.
The nature of series [2]: Dermal pharmacokinetics / in vivo dermal absorption in rats. Also noted: species or system rat. The protocol: Blood samples (approximately 0.2 mL) were taken periodically by cannulated right jugular vein at 15 and 30 min, and 1, 2, 4, 8, 12, 24, 36, and 48 h post-dose. […] To analyze the in vivo (dermal and i.v. application) samples, 50 µL of the plasma was used, and extraction and analysis methods were the same as in vitro samples. […] The slope of the last phase (λz) is the individual estimate of the terminal elimination rate constant, which is calculated using log-linear regression of the terminal portions of the plasma concentration–time curves. The area under the plasma concentration–time curve from time zero to the last observation time point (AUCall) was calculated using the trapezoidal rule, and the AUC to infinity time (AUCinf) was obtained by adding Cn/λz to the AUCall (Cn: last concentration of chemical). Systemic clearance (CL) was calculated as dose/AUC. The apparent volume of the distribution (Vd) during the terminal phase was calculated as CL/λz. The peak plasma concentration (Cmax) and time to reach Cmax (Tmax) were determined directly from these observations. […] The plasma concentration–time data were analyzed using a non-compartmental WinNonlin model (version 2.1, Pharsight, NC, USA) to acquire i.v. and dermal pharmacokinetic parameters.

Details of series [3]: method as in PMID 34335256. The settings on record: hydrogel formulation, 0.262 mg/kg rat dorsal application; cited from earlier work.
The next series concerns estrogen receptor α. Also noted: method as in PMID 33064576. The conditions noted are these: in silico and in vitro studies; cited from earlier work.
On the set-up of series [4]: method as in Table S1. The settings on record: ref Table S1; cited from earlier work.
A further series relates to thyroid receptor α. The arrangement: method as in PMID 33064576. The settings on record: in silico and in vitro studies; cited from earlier work.
The test system of the next series is gram-negative bacteria. Also noted: method as in Table S1. The settings on record: ref Table S1; cited from earlier work.
The nature of series [5]: Intravenous pharmacokinetics in rats. Type of series: in vivo. The conditions noted are these: rat; for half-life / AUC / AUC(0-inf) / clearance / Cmax / Vd: plasma, iv, n = 3; for half-life: glycerol formal, read-out: T1/2, terminal elimination half-life (converted); for clearance: read-out: CL, systemic clearance (converted); for Cmax: read-out: Cmax, peak plasma concentration; for Vd: read-out: Vd, volume of distribution. Here is the method: Blood samples (>0.2 mL) for plasma were collected by cannulated right jugular vein at 1, 2, 5, 10, and 30 min, and 1, 2, 4, 6, 12, 24, 36, and 48 h post-dose. Plasma samples were harvested by centrifugation at 13,000 rpm for 10 min and stored at −20 °C until analysis.
To analyze the in vivo (dermal and i.v. application) samples, 50 µL of the plasma was used, and extraction and analysis methods were the same as in vitro samples.
In the in vivo study, the terminal elimination half-life (T1/2) was calculated to be 0.693/λz. The slope of the last phase (λz) is the individual estimate of the terminal elimination rate constant, which is calculated using log-linear regression of the terminal portions of the plasma concentration–time curves. The area under the plasma concentration–time curve from time zero to the last observation time point (AUCall) was calculated using the trapezoidal rule, and the AUC to infinity time (AUCinf) was obtained by adding Cn/λz to the AUCall (Cn: last concentration of chemical). Systemic clearance (CL) was calculated as dose/AUC. The apparent volume of the distribution (Vd) during the terminal phase was calculated as CL/λz. The peak plasma concentration (Cmax) and time to reach Cmax (Tmax) were determined directly from these observations. The relative bioavailability (F) after dermal application was calculated as F (%) = 100 (Doseiv·AUCdermal)/(Dosedermal·AUCiv).
The plasma concentration–time data were analyzed using a non-compartmental WinNonlin model (version 2.1, Pharsight, NC, USA) to acquire i.v. and dermal pharmacokinetic parameters.

Details of series [6]: method as in PMID 34335256. The conditions noted are these: female rats, oral, 28 days, 500 and 1000 mg/kg; cited from earlier work.
The subject of a further series is thyroid receptor β. The arrangement: method as in PMID 33064576. The settings on record: in silico and in vitro studies; cited from earlier work.
A short description of series [7]: Stability of BCP in receptor fluid (6% POE20). Type of series: physicochemical. The settings on record: 0.5 mg/mL, 48 h, 32 °C, sink conditions, n = 3.
Protocol: The in vitro dermal absorption study followed the guidelines of the Korea Ministry of Food and Drug Safety [15] with a Franz diffusion cell system consisting of a vision Microette auto-sampler, stirring drive, circulating water bath, stirring control, and autofill (Hanson, Chatsworth, CA, USA). The volume of the receptor fluid chamber was 12 mL and the temperature of the receptor fluid was maintained in a circulating water bath at 32 °C. […] The skin, after hydrating with normal saline for 5 min, was then placed between the donor and receptor compartments of the diffusion cells. […] Each formulation (~200 mg) was applied to 1.77 cm^2 of the donor chamber.
The next series has as its system glucocorticoid receptor. The arrangement: method as in PMID 33064576. The conditions noted are these: in silico and in vitro studies; cited from earlier work.

The structures appear in SMILES notation. Read-outs that look alike come from different tables or passages of the source. A value given as a limit tells only on which side of the number the result lay.

In the case of `C[C@]12CC[C@H]3[C@@H](CCC4=CC(=O)CC[C@@]43C)[C@@H]1CC[C@@H]2O` [testosterone, reference compound], in [1], the LogPow is given as 3.3.

Take `COc1ccc(C(=O)c2ccccc2)c(O)c1` [benzophenone-3]: the LogPow in series [1] was 3.58.

As for `Oc1c(Br)cc(Cl)cc1Cc1cc(Cl)cc(Br)c1O` [BCP, 2,2'-Methylenbis (6-bromo-4-chlorophenol)], the “Effect of preservative, gram-positive bacteria” value in the series with gram-positive bacteria is “good”. For the same molecule, the “Action on androgen receptor” value in the series on androgen receptor is “antagonist”. The “Effect of preservative, yeasts / moulds” value with yeasts / moulds is “inadequate”. In series [1] (ref Table S1), the LogPow was 6.12. For the same molecule, in series [2] (determined from the in vivo PK / dermal study in rats), the “Representative (total) dermal absorption of BCP” value amounted to 12.20 ± 2.63%. The bioavailability in [2] (rat, plasma, topical, 234 mg/kg formulation, read-out: F, dermal bioavailability) amounted to 12.2 ± 2.63%. In addition, in series [3], the BCP absorption is listed as 29.25 ± 6.09%. Also, the “Action on estrogen receptor α” value in the series with estrogen receptor α was “antagonist”. The Solubility in water in series [4] was less than 5 µg/mL. Also, the “Action on thyroid receptor α” value with thyroid receptor α is reported as “antagonist”. The “Effect of preservative, gram-negative bacteria” value with gram-negative bacteria is recorded as “moderate”. Further, in series [5] (i.v. 0.2 mg/kg), the half-life was 34.5 ± 5.87 h, the area under the curve (AUC) was found to be 4190 ± 320 ng·h/mL, the AUC(0-inf) is 5860 ± 767 ng·h/mL and the clearance is 0.576 mL/min/kg. Also, in [5] (i.v. 0.2 mg/kg), the Cmax was determined as 4190 ± 1690 ng/mL and the Vd amounted to 1.74 ± 0.072 L/kg. Moreover, in series [5] (i.v. 1 mg/kg), the half-life is 30.5 ± 1.83 h, the AUC stood at 30500 ng·h/mL, the AUC(0-inf) was found to be 41600 ng·h/mL and the clearance was 0.401 mL/min/kg. In addition, in [5] (i.v. 1 mg/kg), the Cmax was 11400 ng/mL and the Vd is 1.06 ± 0.0502 L/kg. Besides, in series [5] (i.v.), the “AUCs (AUCall and AUCinf) in plasma at 1 mg/kg versus 0.2 mg/kg” value is reported as “approximately 7 fold”. Further, the “Hematological and histopathological characteristics” value in series [6] is given as “altered”. Further, the “Action on thyroid receptor β” value with thyroid receptor β was “antagonist”. For the same molecule, the “Stability in 6% POE20” value in series [7] was “stable”. Further, in the series on glucocorticoid receptor, the “Action on glucocorticoid receptor” value was “antagonist”.

With `CC1CC(OC(=O)c2ccccc2O)CC(C)(C)C1` (centres unmarked) [homosalate], in [1], the LogPow is on record as 5.94.

Consider `CCCCC(CC)COC(=O)C=Cc1ccc(OC)cc1` (centres unmarked) [ethylhexyl methoxycinnamate], for which the LogPow in series [1] is 5.96.

The values are drawn from publication PMC9229563, “Pharmacokinetics and the Dermal Absorption of Bromochlorophene, a Cosmetic Preservative Ingredient, in Rats” (Toxics, 2022).
